Results reported in patent publication US20230146455A1, “TREATMENT OF INFLAMMATORY DISEASES WITH PEPTIDES AND PHARMACEUTICAL COMPOSITIONS” (Yuyu Pharma, Inc., priority 2020, published 2023).
Several values for one entry are separate records, joined by “and”; a condition that tells them apart may be missing. Equal entries are not always repeated. Where a SMILES comes first, the peptide text is derived from it. [ ]: non-standard residue; d: D form. Hyp = O=C(O)[C@@H]1C[C@@H](O)CN1

Assays:
IFN-gamma = test: Example 9 Luminex, LPS hPBMCs: IFN-gamma; type: cell-based, human
Method: (§1) Treatment Human PBMCs were pretreated with YY-101, YDE-011 and YDE-043 or reference compound; Xiidra® at various concentration (ranging from 1 nM to 100 uM) for 2 h before stimulation. An equal volume of 0.5% DMSO was used as a vehicle control. Then, the cells were treated with LPS at 5 ug/ml. The supernatants from treated cells were harvested at 24 h and placed in a 96 well for Luminex cytokine & chemokine profiling using a Luminex 200 multiplex assay (Luminex; R&D system, USA).
(§2) The main study arm with triplicate wells per group in a 24-well plate: • 1. Blank • 2. PBMC: 0.5% DMSO • 3. PBMC+LPS (5 ug/ml) • 4. PBMC+YY-101 100 uM • 5. PBMC+YY-101 10 uM • 6. PBMC+YY-101 1 uM • 7. PBMC+YY-101 0.1 uM • 8. PBMC+YY-101 0.01 uM • 9. PBMC+LPS (5 ug/ml)+Xiidra®100 uM • 10. PBMC+LPS (5 ug/ml)+Xiidra® 10 uM • 11. PBMC+LPS (5 ug/ml)+Xiidra® 1 uM • 12. PBMC+LPS (5 ug/ml)+Xiidra®0.1 uM • 13. PBMC+LPS (5 ug/ml)+Xiidra®0.01 uM • 14. PBMC+LPS (5 ug/ml)+Xiidra®0.001 uM • 15. PBMC+LPS (5 ug/ml)+YY-101 100 uM • 16. PBMC+LPS (5 ug/ml)+YY-101 10 uM • 17. PBMC+LPS (5 ug/ml)+YY-101 1 uM • 18. PBMC+LPS (5 ug/ml)+YY-101 0.1 uM • 19. PBMC+LPS (5 ug/ml)+YY-101 0.01 uM • 20. PBMC+LPS (5 ug/ml)+YY-101 0.001 uM • 21. PBMC+LPS (5 ug/ml)+YDE-011 100 uM • 22. PBMC+LPS (5 ug/ml)+YDE-011 10 uM • 23. PBMC+LPS (5 ug/ml)+YDE-011 1 uM • 24. PBMC+LPS (5 ug/ml)+YDE-011 0.1 uM • 25. PBMC+LPS (5 ug/ml)+YDE-011 0.01 uM • 26. PBMC+LPS (5 ug/ml)+YDE-011 0.001 uM • 27. PBMC+LPS (5 ug/ml)+YDE-043 100 uM • 28. PBMC+LPS (5 ug/ml)+YDE-043 10 uM • 29. PBMC+LPS (5 ug/ml)+YDE-043 1 uM • 30. PBMC+LPS (5 ug/ml)+YDE-043 0.1 uM • 31. PBMC+LPS (5 ug/ml)+YDE-043 0.01 uM • 32. PBMC+LPS (5 ug/ml)+YDE-043 0.001 uM
(§3) Multiplex assay was used to measure 30 cytokines and chemokines. The 1:2, 1:10 and 1:200 diluted cell supernatant and serial dilution of the standard were dispensed into a 96 well plate at 50 ul/well. Then, the pre-mixed cocktail of antibody-coated magnetic beads was dispensed at 50 ul/well and incubated at room temperature for 2 h in a horizontal orbital microplate shaker at 800±500 rpm. The beads were washed using a magnetic device to prevent loss. The biotin-antibody was dispensed in 50 ul of each well and incubated at room temperature for 1 h in a shaker at 800±500 rpm. After washing, streptavidin-PE was added at 50 ul/well and incubated at room temperature for 30 min in a shaker under the same conditions. Finally, after washing, wash buffer (100 ul/well) was added to the plate and incubated in a shaker for 2 min. The Luminex™ 200 setting were set according to the manufacturer's protocol. The data was calculated with a standard five-parameter logistic nonlinear regression analysis of the data (xPonent software 4.2, USA). The levels of cytokine/chemokine are normalized to the live cell counts (1×10^5 cells/mL) and presented as concentrations per mL (pg/mL or ng/mL).

TIMP-1 = test: Example 9 Luminex, LPS hPBMCs: TIMP-1; type: cell-based, human; details: PBMC + LPS(5 ug/ml)
Method: as §1, §2, §3

[1] = PBMC + LPS(5 ug/ml) + test article 0.001 uM, Mean
[2] = PBMC + LPS(5 ug/ml) + test article 0.001 uM, single replicates
[3] = PBMC + LPS(5 ug/ml) + test article 0.01 uM, Mean
[4] = PBMC + LPS(5 ug/ml) + test article 0.01 uM, single replicates
[5] = PBMC + LPS(5 ug/ml) + test article 0.1 uM, Mean
[6] = PBMC + LPS(5 ug/ml) + test article 0.1 uM, single replicates
[7] = PBMC + LPS(5 ug/ml) + test article 1 uM, Mean
[8] = PBMC + LPS(5 ug/ml) + test article 1 uM, single replicates
[9] = PBMC + LPS(5 ug/ml) + test article 10 uM, Mean
[10] = PBMC + LPS(5 ug/ml) + test article 10 uM, single replicates
[11] = PBMC + LPS(5 ug/ml) + test article 100 uM, Mean
[12] = PBMC + LPS(5 ug/ml) + test article 100 uM, single replicates
[13] = PBMC + test article 0.01 uM, no LPS, Mean
[14] = PBMC + test article 0.01 uM, no LPS, single replicates
[15] = PBMC + test article 0.1 uM, no LPS, Mean
[16] = PBMC + test article 0.1 uM, no LPS, single replicates
[17] = PBMC + test article 1 uM, no LPS, Mean
[18] = PBMC + test article 1 uM, no LPS, single replicates
[19] = PBMC + test article 10 uM, no LPS, Mean
[20] = PBMC + test article 10 uM, no LPS, single replicates
[21] = PBMC + test article 100 uM, no LPS, Mean
[22] = PBMC + test article 100 uM, no LPS, single replicates
[23] = test article 0.001 uM, single replicates
[24] = test article 0.01 uM, single replicates

CC(C)C[C@H](NC(=O)CNC(=O)[C@H](CC(=O)O)NC(=O)[C@H](CCC(N)=O)NC(=O)CNC(=O)[C@@H]1C[C@@H](O)CN1)C(=O)N[C@@H](C)C(=O)NCC(=O)N1CCC[C@H]1C(=O)N[C@@H](CCCCN)C(=O)O [YY-101] (H-[Hyp]GQDGLAGPK-OH; N-terminus and C-terminus assumed)
Concentration (IFN-gamma) (IFN-gamma; [1]): 2439.1 pg/mL | conc/live cell (IFN-gamma) (IFN-gamma; [1]): 378.6 pg/10^5 | Concentration (IFN-gamma) (IFN-gamma; [2]): 2345.3 pg/mL and 2706.6 pg/mL and 2265.5 pg/mL | conc/live cell (IFN-gamma) (IFN-gamma; [2]): 411.5 pg/10^5 and 381.2 pg/10^5 and 343.3 pg/10^5 | Concentration (IFN-gamma) (IFN-gamma; [3]): 3133.1 pg/mL | conc/live cell (IFN-gamma) (IFN-gamma; [3]): 507.8 pg/10^5 | Concentration (IFN-gamma) (IFN-gamma; [4]): 3435.7 pg/mL and 3322.0 pg/mL and 2641.6 pg/mL | conc/live cell (IFN-gamma) (IFN-gamma; [4]): 536.8 pg/10^5 and 553.7 pg/10^5 and 433.0 pg/10^5 | Concentration (IFN-gamma) (IFN-gamma; [5]): 1841.4 pg/mL | conc/live cell (IFN-gamma) (IFN-gamma; [5]): 313.6 pg/10^5 | Concentration (IFN-gamma) (IFN-gamma; [6]): 2024.2 pg/mL and 1601.1 pg/mL and 1899.0 pg/mL | conc/live cell (IFN-gamma) (IFN-gamma; [6]): 326.5 pg/10^5 and 307.9 pg/10^5 and 306.3 pg/10^5 | Concentration (IFN-gamma) (IFN-gamma; [7]): 2318.4 pg/mL | conc/live cell (IFN-gamma) (IFN-gamma; [7]): 355.2 pg/10^5 | Concentration (IFN-gamma) (IFN-gamma; [8]): 2480.1 pg/mL and 2437.0 pg/mL and 2038.3 pg/mL | conc/live cell (IFN-gamma) (IFN-gamma; [8]): 393.7 pg/10^5 and 343.2 pg/10^5 and 328.8 pg/10^5 | Concentration (IFN-gamma) (IFN-gamma; [9]): 2654.7 pg/mL | conc/live cell (IFN-gamma) (IFN-gamma; [9]): 406.4 pg/10^5 | Concentration (IFN-gamma) (IFN-gamma; [10]): 3058.1 pg/mL and 2593.6 pg/mL and 2312.4 pg/mL | conc/live cell (IFN-gamma) (IFN-gamma; [10]): 509.7 pg/10^5 and 405.2 pg/10^5 and 304.3 pg/10^5 | Concentration (IFN-gamma) (IFN-gamma; [11]): 1939.0 pg/mL | conc/live cell (IFN-gamma) (IFN-gamma; [11]): 333.7 pg/10^5 | Concentration (IFN-gamma) (IFN-gamma; [12]): 1943.2 pg/mL and 2122.4 pg/mL and 1751.5 pg/mL | conc/live cell (IFN-gamma) (IFN-gamma; [12]): 308.4 pg/10^5 and 342.3 pg/10^5 and 350.3 pg/10^5 | Concentration (IFN-gamma) (IFN-gamma; [13]): 20.8 pg/mL | conc/live cell (IFN-gamma) (IFN-gamma; [13]): 4.2 pg/10^5 | Concentration (IFN-gamma) (IFN-gamma; [14]): 12.5 pg/mL and 29.1 pg/mL | conc/live cell (IFN-gamma) (IFN-gamma; [14]): 2.4 pg/10^5 and 6.1 pg/10^5 | Concentration (IFN-gamma) (IFN-gamma; [15]): 20.8 pg/mL | conc/live cell (IFN-gamma) (IFN-gamma; [15]): 3.9 pg/10^5 | Concentration (IFN-gamma) (IFN-gamma; [16]): 12.5 pg/mL and 29.1 pg/mL | conc/live cell (IFN-gamma) (IFN-gamma; [16]): 2.8 pg/10^5 and 5.0 pg/10^5 | Concentration (IFN-gamma) (IFN-gamma; [17]): 18.1 pg/mL | conc/live cell (IFN-gamma) (IFN-gamma; [17]): 3.3 pg/10^5 | Concentration (IFN-gamma) (IFN-gamma; [18]): 12.5 pg/mL and 23.7 pg/mL | conc/live cell (IFN-gamma) (IFN-gamma; [18]): 2.3 pg/10^5 and 4.3 pg/10^5 | Concentration (IFN-gamma) (IFN-gamma; [19]): 50.9 pg/mL | conc/live cell (IFN-gamma) (IFN-gamma; [19]): 8.1 pg/10^5 | Concentration (IFN-gamma) (IFN-gamma; [20]): 67.3 pg/mL and 34.4 pg/mL | conc/live cell (IFN-gamma) (IFN-gamma; [20]): 10.5 pg/10^5 and 5.6 pg/10^5 | Concentration (IFN-gamma) (IFN-gamma; [21]): 36.8 pg/mL | conc/live cell (IFN-gamma) (IFN-gamma; [21]): 5.6 pg/10^5 | Concentration (IFN-gamma) (IFN-gamma; [22]): 49.9 pg/mL and 23.7 pg/mL | conc/live cell (IFN-gamma) (IFN-gamma; [22]): 7.8 pg/10^5 and 3.4 pg/10^5 | TIMP-1 Concentration (TIMP-1; test article 0.001 uM, Mean): 2635.9 pg/mL | TIMP-1 MFI (TIMP-1; test article 0.001 uM, Mean): 1569.7 | TIMP-1 conc/live cell (TIMP-1; test article 0.001 uM, Mean): 411.8 pg/10^5 | TIMP-1 Concentration (TIMP-1; [23]): 2670.8 pg/mL and 2497.3 pg/mL and 2739.7 pg/mL | TIMP-1 MFI (TIMP-1; [23]): 1596.0 and 1464.5 and 1648.5 | TIMP-1 conc/live cell (TIMP-1; [23]): 468.6 pg/10^5 and 351.7 pg/10^5 and 415.1 pg/10^5 | TIMP-1 Concentration (TIMP-1; test article 0.01 uM, Mean): 2651.1 pg/mL | TIMP-1 MFI (TIMP-1; test article 0.01 uM, Mean): 1581.2 | TIMP-1 conc/live cell (TIMP-1; test article 0.01 uM, Mean): 430.2 pg/10^5 | TIMP-1 Concentration (TIMP-1; [24]): 2636.0 pg/mL and 2552.3 pg/mL and 2765.2 pg/mL | TIMP-1 MFI (TIMP-1; [24]): 1569.5 and 1506.0 and 1668.0
